Data reported in ChEMBL document CHEMBL1201862, “PubChem BioAssay data set” (2004).
Activity calls are given as the source filed them. No stated cut-off is given here; in the data, actives have a measured IC50 and inactives only a lower limit.

Target: Envelope glycoprotein gp160 (Human immunodeficiency virus 1, UniProt Q6QLK5)
Assay: cell-free HIV fusion peptide-binding blockers – biochemical, uHTS, fluorescence dequenching, […] (AID 1986)

Sequence of Envelope glycoprotein gp160 (Q6QLK5 whole entry, the tested form may be a part): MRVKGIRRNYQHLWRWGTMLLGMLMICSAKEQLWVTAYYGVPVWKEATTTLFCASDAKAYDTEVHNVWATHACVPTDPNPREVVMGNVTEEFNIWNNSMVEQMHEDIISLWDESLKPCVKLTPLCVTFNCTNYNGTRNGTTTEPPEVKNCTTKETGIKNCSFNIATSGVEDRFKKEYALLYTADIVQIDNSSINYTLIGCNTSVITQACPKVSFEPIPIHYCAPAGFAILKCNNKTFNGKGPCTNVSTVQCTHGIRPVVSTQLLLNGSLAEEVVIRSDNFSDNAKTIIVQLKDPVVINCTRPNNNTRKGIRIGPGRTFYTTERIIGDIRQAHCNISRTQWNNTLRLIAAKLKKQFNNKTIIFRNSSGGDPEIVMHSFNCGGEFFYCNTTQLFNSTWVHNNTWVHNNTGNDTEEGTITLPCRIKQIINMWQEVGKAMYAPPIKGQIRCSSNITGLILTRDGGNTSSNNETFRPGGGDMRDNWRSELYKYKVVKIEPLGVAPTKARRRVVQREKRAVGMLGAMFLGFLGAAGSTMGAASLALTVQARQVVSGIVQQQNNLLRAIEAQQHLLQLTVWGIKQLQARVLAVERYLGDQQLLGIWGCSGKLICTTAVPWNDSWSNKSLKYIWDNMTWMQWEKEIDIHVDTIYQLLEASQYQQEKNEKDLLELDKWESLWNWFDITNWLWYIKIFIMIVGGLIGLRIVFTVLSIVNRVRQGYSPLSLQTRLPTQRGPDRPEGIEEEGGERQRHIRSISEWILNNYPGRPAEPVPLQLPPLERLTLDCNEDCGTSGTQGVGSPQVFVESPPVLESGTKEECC

**Q.** For CCOC(=O)C1=C(C)N=c2s/c(=C\c3ccc(OCC(=O)O)c(OC)c3)c(=O)n2C1c1ccc(OC)cc1 (stereo unspecified), which IC50 is on record?
**A.** 23.9 µM (active)
